For 19 compounds, EC50 results are on record in US12162864B2, “Condensed-cyclic compound” (Takeda Pharmaceutical Company Limited, priority 2018, dated 2024).

Broadly, the EC50 is the concentration giving half of the maximal effect.

The assay addresses T1, human M1 receptor (Homo sapiens, UniProt P11229).
T1 construct: expressed in transfected cells; host or cells: CHO-K1
T1 sequence (P11229 1-460): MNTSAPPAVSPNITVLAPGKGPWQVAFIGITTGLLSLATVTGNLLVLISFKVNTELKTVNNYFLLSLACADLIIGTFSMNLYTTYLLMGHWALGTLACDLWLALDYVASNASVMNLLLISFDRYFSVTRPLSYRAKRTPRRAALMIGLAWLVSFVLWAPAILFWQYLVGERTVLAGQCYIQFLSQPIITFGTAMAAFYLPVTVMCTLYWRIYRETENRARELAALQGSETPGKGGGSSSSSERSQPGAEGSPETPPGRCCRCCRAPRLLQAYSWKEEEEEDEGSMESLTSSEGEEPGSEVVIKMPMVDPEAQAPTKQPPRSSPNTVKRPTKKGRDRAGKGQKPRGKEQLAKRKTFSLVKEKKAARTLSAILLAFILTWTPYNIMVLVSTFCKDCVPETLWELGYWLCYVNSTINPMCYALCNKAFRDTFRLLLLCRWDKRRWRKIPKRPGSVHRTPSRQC
The assay is described as follows: Measurement of M1 receptor positive allosteric modulator (M1PAM) activity. The class given is cell-based. The note with it: PAM activity in presence of acetylcholine at EC20 concentration; CHO-K1 cells stably expressing human M1 receptor; IP1 time-resolved fluorescence. The method, then: Measurement of M1 Receptor Positive Allosteric Modulator (M1PAM) Activity
The activity of a test compound in the presence of acetylcholine at an EC20 concentration affording about 20% action of the maximum activity was measured as PAM activity. The method therefor is as follows. To a 384-well white plate (Greiner™) was added 4 μL of the test compound diluted with IP1 Stimulation buffer (CisBio™) containing 0.1% fatty acid-free BSA containing 80 nM acetylcholine. Freeze stock of CHO-K1 cells stably expressing human M1 receptor (hCHRMl) was prepared with IP1 Stimulation buffer (CisBio™) containing 0.1% fatty acid-free BSA, 4 μL thereof was added (10,000 cells/well) and the mixture was cultured in a 5% CO2 incubator at 37° C. for 1 hr. 4 μL of a solution (CisBio™) containing IP1-d2 and Anti-IP1-cryptate Tb conjugate was added the mixture was incubated at room temperature for 1 hr, and the time-resolved fluorescence signal was measured on an Envision plate reader (Perkin Elmer™). The activity (%) of the test compound was calculated by defining the value when acetylcholine was added at the final concentration of 20 μM as 100% and the value when DMSO was added instead of the test compound under acetylcholine-free conditions as 0%, and the EC50 value was calculated as a value of 50% of the concentration dependence curve of the test compound.
With `Cn1cc(-c2ccc(Cc3cc(C(=O)N[C@H]4CCOC[C@@H]4O)c(F)c4c3OCC4)cc2)nn1` [Example 1, 1,5-anhydro-2,3-dideoxy-3-(((4-fluoro-7-(4-(1-methyl-1H-1,2,3-triazol-4-yl)benzyl)-2,3-dihydro-1-benzofuran-5-yl)carbonyl)amino)-L-threo-pentitol], the EC50 was 3.1 nM.

`Cn1cc(-c2ccc(Cc3cc(C(=O)N[C@H]4CCOC[C@@H]4O)c(F)c4c3OCC4)cc2)cn1` [Example 2, 1,5-anhydro-2,3-dideoxy-3-(((4-fluoro-7-(4-(1-methyl-1H-pyrazol-4-yl)benzyl)-2,3-dihydro-1-benzofuran-5-yl)carbonyl)amino)-L-threo-pentitol]: the EC50 turned out to be 4.9 nM.

As to `O=C(N[C@H]1CCOC[C@@H]1O)c1cc(Cc2ccc(-n3cccn3)cc2)c2c(c1F)CCO2` [Example 9, 1,5-anhydro-2,3-dideoxy-3-(((4-fluoro-7-(4-(1H-pyrazol-1-yl)benzyl)-2,3-dihydro-1-benzofuran-5-yl)carbonyl)amino)-L-threo-pentitol], the EC50 turned out to be 7.6 nM.

As for `O=C(N[C@H]1CCCC[C@@H]1O)c1cc(Cc2ccc(-n3cccn3)cc2)c2c(c1F)CCO2` [Example 10, 4-fluoro-N-((1S,2S)-2-hydroxycyclohexyl)-7-(4-(1H-pyrazol-1-yl)benzyl)-2,3-dihydro-1-benzofuran-5-carboxamide], the EC50 is 17 nM.

In the case of `O=C(N[C@H]1COCC[C@@H]1O)c1cc(Cc2ccc(-n3cccn3)cc2)c2c(c1F)CCO2` [Example 11, 1,5-anhydro-2,4-dideoxy-2-(((4-fluoro-7-(4-(1H-pyrazol-1-yl)benzyl)-2,3-dihydro-1-benzofuran-5-yl)carbonyl)amino)-L-threo-pentitol], the EC50 was 96 nM.

For the compound `CNC(=O)c1ccc(Cc2cc(C(=O)N[C@H]3CCOC[C@@H]3O)c(F)c3c2OCC3)cc1F` [Example 12, 1,5-anhydro-2,3-dideoxy-3-(((4-fluoro-7-(3-fluoro-4-(methylcarbamoyl)benzyl)-2,3-dihydro-1-benzofuran-5-yl)carbonyl)amino)-L-threo-pentitol], the EC50 is 11 nM.

For the compound `O=C(NC[C@@H]1CCCO1)c1ccc(Cc2cc(C(=O)N[C@H]3CCOC[C@@H]3O)c(F)c3c2OCC3)cc1F` [Example 15, 1,5-anhydro-2,3-dideoxy-3-(((4-fluoro-7-(3-fluoro-4-(((2S)-tetrahydrofuran-2-ylmethyl)carbamoyl)benzyl)-2,3-dihydro-1-benzofuran-5-yl)carbonyl)amino)-L-threo-pentitol], the EC50 is 4.9 nM.

Take `COc1c(C(=O)N[C@H]2CCOC[C@@H]2O)cc(Cc2ccc(-c3cn(C)nn3)cc2)c2c1CCO2` [Example 18, 1,5-anhydro-2,3-dideoxy-3-(((4-methoxy-7-(4-(1-methyl-1H-1,2,3-triazol-4-yl)benzyl)-2,3-dihydro-1-benzofuran-5-yl)carbonyl)amino)-L-threo-pentitol]: the 50% effective concentration (EC50) was determined as 6 nM.

Take `Cn1cc(-c2ccc(Cc3cc(C(=O)N[C@H]4CCOC[C@@H]4O)c(O)c4c3OCC4)cc2)nn1` [Example 20, 1,5-anhydro-2,3-dideoxy-3-(((4-hydroxy-7-(4-(1-methyl-1H-1,2,3-triazol-4-yl)benzyl)-2,3-dihydro-1-benzofuran-5-yl)carbonyl)amino)-L-threo-pentitol]: the EC50 turned out to be 43 nM.

Regarding `COCCNC(=O)c1ccc(Cc2cc(C(=O)N[C@H]3CCOC[C@@H]3O)c(OC)c3c2OCC3)cc1F` [Example 32, 1,5-anhydro-2,3-dideoxy-3-(((7-(3-fluoro-4-((2-methoxyethyl)carbamoyl)benzyl)-4-methoxy-2,3-dihydro-1-benzofuran-5-yl)carbonyl)amino)-L-threo-pentitol], the EC50 is 24 nM.

With `COc1c(C(=O)N[C@H]2CCOC[C@@H]2O)cc(Cc2ccc(C(=O)NC[C@@H]3CCCO3)c(F)c2)c2c1CCO2` [Example 33, 1,5-anhydro-2,3-dideoxy-3-(((7-(3-fluoro-4-(((2S)-tetrahydrofuran-2-ylmethyl)carbamoyl)benzyl)-4-methoxy-2,3-dihydro-1-benzofuran-5-yl)carbonyl)amino)-L-threo-pentitol], the EC50 is 11 nM.

As to `COc1c(C(=O)N[C@H]2CCOC[C@@H]2O)cc(Cc2ccc(C(=O)NC[C@H]3CCCO3)c(F)c2)c2c1CCO2` [Example 43, 1,5-anhydro-2,3-dideoxy-3-(((7-(3-fluoro-4-(((2R)-tetrahydrofuran-2-ylmethyl)carbamoyl)benzyl)-4-methoxy-2,3-dihydro-1-benzofuran-5-yl)carbonyl)amino)-L-threo-pentitol], the EC50 worked out at 96 nM.

With `COc1c(C(=O)N[C@H]2CCOC[C@@H]2O)cc(Cc2ccc(-c3cn(C)nn3)cc2)c2c1CCC2` [Example 53, 1,5-anhydro-2,3-dideoxy-3-(((4-methoxy-7-(4-(1-methyl-1H-1,2,3-triazol-4-yl)benzyl)-2,3-dihydro-1H-inden-5-yl)carbonyl)amino)-L-threo-pentitol], the EC50 amounted to 3.2 nM.

In the case of `COc1c(C(=O)N[C@H]2CCOC[C@@H]2O)cc(Cc2ccc(-c3cnn(C)c3)nc2)c2c1CCC2` [Example 55, 1,5-anhydro-2,3-dideoxy-3-(((4-methoxy-7-((6-(1-methyl-1H-pyrazol-4-yl)pyridin-3-yl)methyl)-2,3-dihydro-1H-inden-5-yl)carbonyl)amino)-L-threo-pentitol], the EC50 is 5.5 nM.

Take `CNC(=O)c1ccc(Cc2cc(C(=O)N[C@H]3CCOC[C@@H]3O)c(OC)c3c2CCC3)cc1F` [Example 57, 1,5-anhydro-2,3-dideoxy-3-(((7-(3-fluoro-4-(methylcarbamoyl)benzyl)-4-methoxy-2,3-dihydro-1H-inden-5-yl)carbonyl)amino)-L-threo-pentitol]: the concentration giving a half-maximal response (EC50) was determined as 8.9 nM.

On to `COCCNC(=O)c1ccc(Cc2cc(C(=O)N[C@H]3CCOC[C@@H]3O)c(OC)c3c2CCC3)cc1F` [Example 58, 1,5-anhydro-2,3-dideoxy-3-(((7-(3-fluoro-4-((2-methoxyethyl)carbamoyl)benzyl)-4-methoxy-2,3-dihydro-1H-inden-5-yl)carbonyl)amino)-L-threo-pentitol], for which the 50% effective concentration (EC50) is 9.4 nM.

In the case of `COc1c(C(=O)N[C@H]2CCOC[C@@H]2O)cc(Cc2ccc(C(=O)NC[C@@H]3CCCO3)c(F)c2)c2c1CCC2` [Example 59, 1,5-anhydro-2,3-dideoxy-3-(((7-(3-fluoro-4-(((2S)-tetrahydrofuran-2-ylmethyl)carbamoyl)benzyl)-4-methoxy-2,3-dihydro-1H-inden-5-yl)carbonyl)amino)-L-threo-pentitol], the EC50 was found to be 3.9 nM.

Take `COc1c(C(=O)N[C@H]2CCOC[C@@H]2O)cc(Cc2ccc(C(=O)NCCCS(C)(=O)=O)c(F)c2)c2c1CCC2` [Example 66, 1,5-anhydro-2,3-dideoxy-3-(((7-(3-fluoro-4-((3-(methylsulfonyl)propyl)carbamoyl)benzyl)-4-methoxy-2,3-dihydro-1H-inden-5-yl)carbonyl)amino)-L-threo-pentitol]: the concentration giving a half-maximal response (EC50) was determined as 12 nM.

Turning to `COc1c(C(=O)N[C@H]2CCOC[C@@H]2O)cc(Cc2ccc(C(=O)NC[C@H]3CCCO3)c(F)c2)c2c1CCC2` [Example 70, 1,5-anhydro-2,3-dideoxy-3-(((7-(3-fluoro-4-(((2R)-tetrahydrofuran-2-ylmethyl)carbamoyl)benzyl)-4-methoxy-2,3-dihydro-1H-inden-5-yl)carbonyl)amino)-L-threo-pentitol], the concentration giving a half-maximal response (EC50) turned out to be 32 nM.
